Measurements reported in PMC6359636, “Advances in Drug Delivery and Biomaterials: Facts and Vision” (Pharmaceutics, 2019).
Peptide text beside a SMILES is read from it. * marks the point of attachment. 5FAM = O=C1OC2(c3ccc(O)cc3Oc3cc(O)ccc32)c2ccc(C(=O)*)cc21

Experiments:
[1] = mass spectroscopy, animal model
[2] = ROS-scavenging activity, DPPH assay (SFNs); format: biochemical
From the text: Osteoarthritis (OA) represents a musculoskeletal pathological condition characterized by chondrocytes apoptosis, extracellular matrix degradation and consequent cartilage degeneration; the main mechanisms involved in OA onset seem to be oxidative stress and the overproduction of pro-inflammatory cytokines, such as interleukin-1β (IL-1β) and tumour necrosis factor-α (TNF-α). Systemic therapy with anti-inflammatory drugs represents the “gold standard” in OA treatment, and Celecoxib is the first choice. However, it presents limited water solubility, poor in vivo bioavailability, fast metabolism and bloodstream clearance^2. Nanomedicine is considered a good strategy to overcome these problems; in fact, nanosystems are able to improve the solubility and the bioavailability of poorly-soluble drugs, and to control/target the drug release, avoiding undesired side effects. Thanks to its biocompatibility and biodegradability, silk fibroin represents the ideal biomaterial candidate for the nanoparticle production. In this study, we selected silk fibroin nanoparticles (SFNs) as the delivery system for two anti-inflammatory hydrophobic drugs: celecoxib (CXB) and curcumin (CUR). […] The safety and efficacy of nanosystems were determined in terms of hemolytic properties, cytotoxicity, ROS-scavenging activity and anti-inflammatory potency in an OA in vitro cell model. […]

intracellular S. aureus = test: Intracellular antibacterial activity in keratinocytes; format: cell-based, Staphylococcus aureus; details: HaCaT cells
[3] = rat, in vivo
Method: In in vivo studies, male Sprague−Dawley rats received a femoral intravenous infusion of IND or oral administrations of MPs and free IND; the plasma of rats was analyzed by HPLC over time in order to evaluate the absolute bioavailability of oral doses.

[4] = Franz cells, porcine cornea, preliminary data, relevant variability
Method: To assess their ex vivo corneal permeability, permeation experiments were carried out using fresh and whole porcine corneas mounted on Franz cells.

HeLa and G361 [5] = test: Photodynamic ROS production; format: cell-based; details: TMPyP: 5 μM, 25 Jcm^−2; ZnTPPS4: 0.25 μM, 5 Jcm^−2
Method: (§1) Photodynamic therapy (PDT) is currently another option for the treatment of tumors. This therapy is a combination of a photodynamically-active substance and light of a suitable wavelength. Two tumor cell cultures—HeLa and G361 were used for the in vitro study. Cells were cultured in 96-well plates with TMPyP and ZnTPPS4 photosensitizers at concentrations of 0.25 μM, 0.5 μM and 5 μM. As a light source, a diode emitter with a wavelength of 414 nm and a radiation intensity of 5 Jcm^−2, 25 Jcm^−2 was used and at irradiation times of 1 min 33 s, 7min 43 s. In this study, three measurement methods were used—a viability test (MTT), determination of ROS production and monitoring of changes in membrane potential (JC1). […] A suitable combination of photosensitizer and radiation may be an effective therapy for the treatment of cancer.

HeLa and G361 [6] = test: Photodynamic viability test (MTT); format: cell-based; details: 414 nm irradiation
Method: as §1

[7] = no reference given; cited from earlier work
[8] = test system: Human Corneal Epithelial (HCE) cells; test: Inflammation model in HCE cells, secreted IL-6 by ELISA; format: cell-based; details: 72 h
[9] = Stability of rhNGF formulated solutions; format: physicochemical
Method: Drug product formulation. The development of the formulation was addressed to obtain a stable rhNGF solution with suitable characteristics for ocular instillation (pH and osmolality in particular). Excipients already used in ophthalmic preparation were preferred. The stability of rhNGF formulated solutions at different concentrations was investigated in the range of temperature −20 °C–+25 °C. […] Chemical oxidative instability was minimized by the appropriate choice of preparation procedures, lowering O2 head space, using inertized containers and by the addition of an antioxidant. Consequently, methionine as component of formulation, O2 containment during the preparation and O2 head space reduction after filling and before sealing of the container were introduced.

[10] = after 3 h of exposure to serum proteins
From the text: (§2) Here, a novel thrombolytic nanoagent is realized by conjugating directly the clinical formulation of tPA to the porous structure of soft discoidal polymeric nanoconstructs (tPA-DPNs).

blood clots = test: Blood clot resolution in murine mesentery venules; format: in vivo
From the text: as §2

Method for chondrocytes: The safety and efficacy of nanosystems were determined in terms of hemolytic properties, cytotoxicity, ROS-scavenging activity and anti-inflammatory potency in an OA in vitro cell model. In particular, chondrocytes were stimulated with IL-1β to simulate an inflammatory condition, and treated with nanoparticles or free drugs.

CN(Cc1nc2c(N)nc(N)nc2[nH]c1=O)c1ccc(C(=O)N[C@@H](CCC(=O)O)C(=O)O)cc1 [7OH-MTX, 7-hydroxymethotrexate]
metabolite status in vivo [1]: not the major metabolite

COc1cc(/C=C/C(=O)CC(=O)/C=C/c2ccc(O)c(OC)c2)ccc1O [CUR, Curcumin]
cytotoxicity on chondrocytes (chondrocytes): highly cytotoxic

Cc1ccc(-c2cc(C(F)(F)F)nn2-c2ccc(S(N)(=O)=O)cc2)cc1 [CXB, celecoxib]
cytotoxicity on chondrocytes (chondrocytes): highly cytotoxic | antioxidant effect [2]: inhibitory

CNC(C)C1CCC(N)C(OC2C(N)CC(N)C(OC3OCC(C)(O)C(NC)C3O)C2O)O1 (stereo not drawn) [GM, gentamicin]
intracellular antibacterial activity (intracellular S. aureus): significant intracellular activity

COc1ccc2c(c1)c(CC(=O)O)c(C)n2C(=O)c1ccc(Cl)cc1 [IND, indomethacin]
oral bioavailability [3]: about 20%

CC[C@H](C)[C@H](NC(=O)[C@H](CCCCN)NC(=O)[C@@H](NC(=O)[C@H](CCC(N)=O)NC(=O)[C@H](CCCNC(=N)N)NC(=O)CNC(=O)CNC(=O)c1ccc2c(c1)C(=O)OC21c2ccc(O)cc2Oc2cc(O)ccc21)[C@@H](C)CC)C(=O)N[C@@H](Cc1c[nH]c2ccccc12)C(=O)N[C@@H](Cc1ccccc1)C(=O)N[C@@H](CCC(N)=O)C(=O)N[C@@H](CC(N)=O)C(=O)N[C@@H](CCCNC(=N)N)C(=O)N[C@@H](CCCNC(=N)N)C(=O)N[C@@H](CCSC)C(=O)N[C@@H](CCCCN)C(=O)N[C@@H](Cc1c[nH]c2ccccc12)C(=O)N[C@@H](CCCCN)C(=O)N[C@@H](CCCCN)C(=O)O [PNTarg]
permeability coefficient / diffusion relative to PNT [4]: did not influence its diffusion with respect to PNT

CC[C@H](C)[C@H](NC(=O)[C@H](CCCCN)NC(=O)[C@@H](NC(=O)[C@H](Cc1c[nH]c2ccccc12)NC(=O)[C@H](Cc1ccccc1)NC(=O)[C@H](CCC(N)=O)NC(=O)[C@H](CC(N)=O)NC(=O)[C@H](CCCNC(=N)N)NC(=O)[C@H](CCCNC(=N)N)NC(=O)[C@H](CCSC)NC(=O)[C@H](CCCCN)NC(=O)[C@H](Cc1c[nH]c2ccccc12)NC(=O)[C@H](CCCCN)NC(=O)[C@H](CCCCN)NC(=O)CNC(=O)CNC(=O)c1ccc2c(c1)C(=O)OC21c2ccc(O)cc2Oc2cc(O)ccc21)[C@@H](C)CC)C(=O)N[C@@H](CCC(N)=O)C(=O)N[C@@H](CCCNC(=N)N)C(=O)O [PNTlys] (5FAM-GGKKWKMRRNQFWIKIQR-OH)
permeability coefficient / diffusion relative to PNT [4]: did not affect the behavior

C[n+]1ccc(-c2c3nc(c(-c4cc[n+](C)cc4)c4ccc([nH]4)c(-c4cc[n+](C)cc4)c4nc(c(-c5cc[n+](C)cc5)c5ccc2[nH]5)C=C4)C=C3)cc1 [TMPyP]
ROS production (HeLa and G361 [5]): more pronounced increase | efficacy in MTT test (HeLa and G361 [6]): higher efficacy

CO[C@H]1/C=C/O[C@@]2(C)Oc3c(C)c(O)c4c(O)c(c(/C=N/N5CCN(C)CC5)c(O)c4c3C2=O)NC(=O)/C(C)=C\C=C\[C@H](C)[C@H](O)[C@@H](C)[C@@H](O)[C@@H](C)[C@H](OC(C)=O)[C@@H]1C [rifampicin]
solubility in water [7]: 0.14 % w/v

TNFα
secreted IL6 relative to control cells [8]: fivefold higher | secreted IL6 ([8]; TNFα 10 ng/mL): up to 0.058 pg/mL/n° cells

rhNGF: human recombinant Nerve Growth Factor
deamidation on storage ([9]; formulated solutions at different concentrations, −20 °C–+25 °C): no deamidation was observed | oxidation on storage ([9]; formulations after 3–9 months of storage): only an oxidized rhNGF form was observed in some cases

tPA-DPNs: clinical formulation of tPA conjugated to soft discoidal polymeric nanoconstructs
original activity preserved [10]: over 60% | clots dissolved / vessels (blood clots; 1.0 mg/kg, about 1 tenth of the clinical dose): 60% | blood clots resolved / vessels recanalized (blood clots; intravenous, 2.5 mg/kg): ~90%
